Test results as given in patent US20200199127A1, “(HETERO)ARYLALKYLAMINO-PYRAZOLOPYRIDAZINE DERIVATIVES HAVING MULTIMODAL ACTIVITY AGAINST PAIN” (priority 2017, published 2020).

Columns and labels:
[1] = target: Human norepinephrine transporter (NET) (Homo sapiens, UniProt P23975); experiment: Binding assay to human norepinephrine transporter (NET), [3H]-Nisoxetin; conditions: human NET enriched membranes, 5 nM [3H]-Nisoxetin; Ki as class symbol
Method: Binding Assay to Human Norepinephrine Transporter (NET).
Human norepinephrine transporter (NET) enriched membranes (5 μg) were incubated with 5 nM of radiolabeled [3H]-Nisoxetin in assay buffer containing 50 mM Tris-HCl, 120 mM NaCl, 5 mM KCl, pH 7.4.
NSB (non specific binding) was measured by adding 10 μM of desipramine. The binding of the test compound was measured at five different concentrations.. After 60 min incubation at 4° C., binding reaction was terminated by filtering through Multiscreen GF/C (Millipore) presoaked in 0.5% polyethyleneimine in Vacuum Manifold Station, followed by 3 washes with ice-cold filtration buffer containing 50 mM Tris-HCl, 0.9% NaCl, pH 7.4.
Filter plates were dried at 60° C. for 1 hour and 30 μl of scintillation cocktail were added to each well before radioactivity reading.

[2] = target: Human α2δ-1 subunit of Cav2.2 calcium channel (Homo sapiens, UniProt P54289); experiment: Human α2δ-1 subunit of Cav2.2 calcium channel assay, [3H]-Gabapentin binding; conditions: human α2δ-1 enriched membranes, 15 nM [3H]-Gabapentin; Ki as class symbol
Method: Human α2δ-1 Subunit of Cav2.2 Calcium Channel Assay
Human α2δ-1 enriched membranes (2.5 μg) were incubated with 15 nM of radiolabeled [3H]-Gabapentin in assay buffer containing Hepes-KOH 10 mM, pH 7.4. NSB (non specific binding) was measured by adding 10 μM pregabalin. The binding of the test compound was measured at five different concentrations. After 60 min incubation at 27° C., binding reaction was terminated by filtering through Multiscreen GF/C (Millipore) presoaked in 0.5% polyethyleneimine in Vacuum Manifold Station, followed by 3 washes with ice-cold filtration buffer containing 50 mM Tris-HCl, pH 7.4. Filter plates were dried at 60° C. for 1 hour and 30 μl of scintillation cocktail were added to each well before radioactivity reading. Readings were performed in a Trilux 1450 Microbeta radioactive counter (Perkin Elmer).

Human α2δ-1 subunit of Cav2.2 calcium channel, sequence (P54289 25-1103): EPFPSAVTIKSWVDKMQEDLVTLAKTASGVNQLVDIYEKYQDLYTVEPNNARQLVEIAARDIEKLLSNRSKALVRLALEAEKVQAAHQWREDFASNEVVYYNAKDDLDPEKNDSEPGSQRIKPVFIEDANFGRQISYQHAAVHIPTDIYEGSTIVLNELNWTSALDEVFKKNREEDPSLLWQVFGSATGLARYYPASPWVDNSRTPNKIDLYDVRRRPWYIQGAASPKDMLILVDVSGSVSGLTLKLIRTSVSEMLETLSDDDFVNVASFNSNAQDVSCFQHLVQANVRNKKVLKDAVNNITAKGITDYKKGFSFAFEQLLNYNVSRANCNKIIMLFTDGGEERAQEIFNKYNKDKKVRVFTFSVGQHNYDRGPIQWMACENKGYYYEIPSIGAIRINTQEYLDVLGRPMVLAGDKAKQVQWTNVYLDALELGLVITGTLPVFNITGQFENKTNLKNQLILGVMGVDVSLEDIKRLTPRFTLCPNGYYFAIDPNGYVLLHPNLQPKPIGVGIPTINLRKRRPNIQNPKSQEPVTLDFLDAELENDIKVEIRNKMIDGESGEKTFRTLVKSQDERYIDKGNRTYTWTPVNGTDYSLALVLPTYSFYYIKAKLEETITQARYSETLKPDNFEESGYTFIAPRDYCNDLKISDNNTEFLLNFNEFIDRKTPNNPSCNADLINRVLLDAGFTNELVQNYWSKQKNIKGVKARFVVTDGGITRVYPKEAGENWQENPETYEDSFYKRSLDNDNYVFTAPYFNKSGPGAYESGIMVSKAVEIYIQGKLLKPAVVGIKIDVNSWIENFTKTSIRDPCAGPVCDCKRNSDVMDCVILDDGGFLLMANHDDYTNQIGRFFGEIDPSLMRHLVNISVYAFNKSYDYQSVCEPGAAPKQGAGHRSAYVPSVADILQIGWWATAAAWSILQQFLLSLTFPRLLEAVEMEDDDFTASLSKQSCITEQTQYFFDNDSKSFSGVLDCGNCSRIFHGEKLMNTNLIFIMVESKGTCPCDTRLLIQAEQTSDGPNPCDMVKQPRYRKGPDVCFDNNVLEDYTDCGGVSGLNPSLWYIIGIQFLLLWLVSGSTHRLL
Human norepinephrine transporter (NET), sequence (P23975 whole entry): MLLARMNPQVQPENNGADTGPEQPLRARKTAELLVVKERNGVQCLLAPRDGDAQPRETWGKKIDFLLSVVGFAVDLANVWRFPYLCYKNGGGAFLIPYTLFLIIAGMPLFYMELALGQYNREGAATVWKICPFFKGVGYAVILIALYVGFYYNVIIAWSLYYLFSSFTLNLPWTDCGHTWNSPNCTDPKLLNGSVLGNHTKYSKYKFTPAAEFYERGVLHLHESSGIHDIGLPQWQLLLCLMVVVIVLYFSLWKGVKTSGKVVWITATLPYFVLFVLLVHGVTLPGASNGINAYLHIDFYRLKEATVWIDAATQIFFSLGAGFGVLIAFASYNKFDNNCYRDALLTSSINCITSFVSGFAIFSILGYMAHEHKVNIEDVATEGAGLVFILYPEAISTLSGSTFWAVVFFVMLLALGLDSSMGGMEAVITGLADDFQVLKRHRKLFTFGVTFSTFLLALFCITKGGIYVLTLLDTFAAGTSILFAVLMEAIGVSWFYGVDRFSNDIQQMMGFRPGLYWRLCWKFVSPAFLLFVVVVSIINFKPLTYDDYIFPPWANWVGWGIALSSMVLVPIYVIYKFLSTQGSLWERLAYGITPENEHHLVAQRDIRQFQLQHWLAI

Ki [1] [nM] | Ki [2] [nM] | Compound
500 to 1000 | 100 to 500 | CCOc1ccc(-n2nc3c(N(C)Cc4cccnc4)nnc(C)c3c2C)c(F)c1 [Example 10, 2-(4-ethoxy-2-fluorophenyl)-N,3,4-trimethyl-N-(pyridin-3-ylmethyl)-2H-pyrazolo[3,4-d]pyridazin-7-amine]
> 1000 | 100 to 500 | CCOc1ccc(-n2nc3c(NC(CCO)c4ccccc4)nnc(C)c3c2C)c(F)c1 (centres unmarked) [Example 8, 3-((2-(4-ethoxy-2-fluorophenyl)-3,4-dimethyl-2H-pyrazolo[3,4-d]pyridazin-7-yl)amino)-3-phenylpropan-1-ol]
> 1000 | 100 to 500 | CCOc1ccc(-n2nc3c(NCc4ccccc4CO)nnc(C)c3c2C)c(F)c1 [Example 37, (2-(((2-(4-ethoxy-2-fluorophenyl)-3,4-dimethyl-2H-pyrazolo[3,4-d]pyridazin-7-yl)amino)methyl)phenyl)methanol]
> 1000 | 100 to 500 | CCOc1ccc(-n2nc3c(N(C)Cc4ncccn4)nnc(C)c3c2C)c(F)c1 [Example 26, 2-(4-ethoxy-2-fluorophenyl)-N,3,4-trimethyl-N-(pyrimidin-2-ylmethyl)-2H-pyrazolo[3,4-d]pyridazin-7-amine]
100 to 500 |  | CCOc1ccc(-n2nc3c(N(C)Cc4cccc(O)c4)nnc(C)c3c2C)c(F)c1 [Example 17, 3-(((2-(4-ethoxy-2-fluorophenyl)-3,4-dimethyl-2H-pyrazolo[3,4-d]pyridazin-7-yl)(methyl)amino)methyl)phenol]
100 to 500 | 100 to 500 | CCOc1ccc(-n2nc3c(N(C)CCc4ccccc4)nnc(C)c3c2C)c(F)c1 [Example 3, 2-(4-ethoxy-2-fluorophenyl)-N,3,4-trimethyl-N-phenethyl-2H-pyrazolo[3,4-d]pyridazin-7-amine]
< 100 |  | CCOc1ccc(-n2nc3c(N(C)Cc4ccccc4)nnc(C)c3c2C)c(F)c1 [Example 6, N-benzyl-2-(4-ethoxy-2-fluorophenyl)-N,3,4-trimethyl-2H-pyrazolo[3,4-d]pyridazin-7-amine]
> 1000 | 500 to 5000 | CCOc1ccc(-n2nc3c(N(C)CCn4cnc5ccccc54)nnc(C)c3c2C)c(F)c1 [Example 58, N-(2-(1H-Benzo[d]imidazol-1-yl)ethyl)-2-(4-ethoxy-2-fluorophenyl)-N,3,4-trimethyl-2H-pyrazolo[3,4-d]pyridazin-7-amine]
500 to 1000 | 100 to 500 | CCOc1ccc(-n2nc3c(N(C)Cc4ccccc4O)nnc(C)c3c2C)c(F)c1 [Example 23, 2-(((2-(4-ethoxy-2-fluorophenyl)-3,4-dimethyl-2H-pyrazolo[3,4-d]pyridazin-7-yl)(methyl)amino)methyl)phenol]
500 to 1000 | ≥ 5000 | CCOc1ccc(-n2nc3c(N(C)CCC(N)c4ccccc4)nnc(C)c3c2C)c(F)c1 (centres unmarked) [Example 39, N1-(2-(4-ethoxy-2-fluorophenyl)-3,4-dimethyl-2H-pyrazolo[3,4-d]pyridazin-7-yl)-N1-methyl-3-phenylpropane-1,3-diamine]
100 to 500 | 500 to 5000 | CCOc1ccc(-n2nc3c(N(C)Cc4ccccc4CNC)nnc(C)c3c2C)c(F)c1 [Example 43, 2-(4-ethoxy-2-fluorophenyl)-N,3,4-trimethyl-N-(2-((methylamino)methyl)benzyl)-2H-pyrazolo[3,4-d]pyridazin-7-amine]
100 to 500 |  | CCOc1ccc(-n2nc3c(N(C)Cc4ccc(OC)cn4)nnc(C)c3c2C)c(F)c1 [Example 38, 2-(4-ethoxy-2-fluorophenyl)-N-((5-methoxypyridin-2-yl)methyl)-N,3,4-trimethyl-2H-pyrazolo[3,4-d]pyridazin-7-amine]
100 to 500 | 100 to 500 | CCOc1ccc(-n2nc3c(NCCC(O)c4ccccc4)nnc(C)c3c2C)c(F)c1 (centres unmarked) [Example 7, 3-((2-(4-ethoxy-2-fluorophenyl)-3,4-dimethyl-2H-pyrazolo[3,4-d]pyridazin-7-yl)amino)-1-phenylpropan-1-ol]
> 1000 | ≥ 5000 | CCOc1ccc(-n2nc3c(N(CCO)Cc4ccncc4)nnc(C)c3c2C)c(F)c1 [Example 53, 2-((2-(4-Ethoxy-2-fluorophenyl)-3,4-dimethyl-2H-pyrazolo[3,4-d]pyridazin-7-yl)(pyridin-4-ylmethyl)amino)ethanol]
> 1000 | ≥ 5000 | CCOc1ccc(-n2nc3c(N(CCO)Cc4cccnc4)nnc(C)c3c2C)c(F)c1 [Example 57, 2-((2-(4-ethoxy-2-fluorophenyl)-3,4-dimethyl-2H-pyrazolo[3,4-d]pyridazin-7-yl)(pyridin-3-ylmethyl)amino)ethanol]
500 to 1000 | 100 to 500 | CCOc1ccc(-n2nc3c(N(C)Cc4cccc(C)n4)nnc(C)c3c2C)c(F)c1 [Example 1, 2-(4-Ethoxy-2-fluorophenyl)-N,3,4-trimethyl-N-((6-methylpyridin-2-yl)methyl)-2H-pyrazolo[3,4-d]pyridazin-7-amine]
> 1000 | 100 to 500 | CCOc1ccc(-n2nc3c(NCc4ncccc4C(F)(F)F)nnc(C)c3c2C)c(F)c1 [Example 20, 2-(4-ethoxy-2-fluorophenyl)-3,4-dimethyl-N-((3-(trifluoromethyl)pyridin-2-yl)methyl)-2H-pyrazolo[3,4-d]pyridazin-7-amine]
500 to 1000 |  | CCOc1ccc(-n2nc3c(N(C)Cc4ccccn4)nnc(C)c3c2C)cc1 [Example 46, 2-(4-ethoxyphenyl)-N,3,4-trimethyl-N-(pyridin-2-ylmethyl)-2H-pyrazolo[3,4-d]pyridazin-7-amine]
100 to 500 |  | CCOc1ccc(-n2nc3c(NCC[C@H](O)c4ccccc4)nnc(C)c3c2C)c(F)c1 [Example 52, (S)-3-((2-(4-ethoxy-2-fluorophenyl)-3,4-dimethyl-2H-pyrazolo[3,4-d]pyridazin-7-yl)amino)-1-phenylpropan-1-ol]
< 100 |  | CCOc1ccc(-n2nc3c(N(C)Cc4ccc(O)cc4)nnc(C)c3c2C)c(F)c1 [Example 18, 4-(((2-(4-ethoxy-2-fluorophenyl)-3,4-dimethyl-2H-pyrazolo[3,4-d]pyridazin-7-yl)(methyl)amino)methyl)phenol]
> 1000 |  | CCOc1ccc(-n2nc3c(NCC[C@@H](O)c4ccccc4)nnc(C)c3c2C)c(F)c1 [Example 51, (R)-3-((2-(4-Ethoxy-2-fluorophenyl)-3,4-dimethyl-2H-pyrazolo[3,4-d]pyridazin-7-yl)amino)-1-phenylpropan-1-ol]
500 to 1000 |  | CCOc1ccc(-n2nc3c(N(CCO)Cc4ccccc4)nnc(C)c3c2C)c(F)c1 [Example 55, 2-(benzyl(2-(4-ethoxy-2-fluorophenyl)-3,4-dimethyl-2H-pyrazolo[3,4-d]pyridazin-7-yl)amino)ethanol]
> 1000 |  | Cc1nnc(N(C)Cc2ccccn2)c2nn(-c3ccc(Cl)cc3OC(F)(F)F)c(C)c12 [Example 42, 2-(4-chloro-2-(trifluoromethoxy)phenyl)-N,3,4-trimethyl-N-(pyridin-2-ylmethyl)-2H-pyrazolo[3,4-d]pyridazin-7-amine]
100 to 500 |  | CCOc1ccc(-n2nc3c(N(C)Cc4ccccc4CO)nnc(C)c3c2C)c(F)c1 [Example 41, (2-(((2-(4-ethoxy-2-fluorophenyl)-3,4-dimethyl-2H-pyrazolo[3,4-d]pyridazin-7-yl)(methyl)amino)methyl)phenyl)meth-anol]
500 to 1000 |  | CCOc1ccc(-n2nc3c(N(C)Cc4cc(C)ccn4)nnc(C)c3c2C)c(F)c1 [Example 44, 2-(4-ethoxy-2-fluorophenyl)-N,3,4-trimethyl-N-((4-methylpyridin-2-yl)methyl)-2H-pyrazolo[3,4-d]pyridazin-7-amine]

Compound | Ki [1] [nM] | Ki [2] [nM]
CCOc1ccc(-n2nc3c(N(C)CCC(O)c4ccccc4)nnc(C)c3c2C)c(F)c1 (centres unmarked) [Example 2, 3-((2-(4-ethoxy-2-fluorophenyl)-3,4-dimethyl-2H-pyrazolo[3,4-d]pyridazin-7-yl)(methyl)amino)-1-phenylpropan-1-ol] | < 100 | 
CCOc1ccc(-n2nc3c(NCCC4(c5ccccn5)CCOC5(CCCC5)C4)nnc(C)c3c2C)c(F)c1 (centres unmarked) [Example 59, 2-(4-ethoxy-2-fluorophenyl)-3,4-dimethyl-N-(2-(9-(pyridin-2-yl)-6-oxaspiro[4.5]decan-9-yl)ethyl)-2H-pyrazolo[3,4-d]pyridazin-7-amine] | > 1000 | ≥ 5000
CCOc1ccc(-n2nc3c(N(C)CC[C@@H](O)c4ccccc4)nnc(C)c3c2C)c(F)c1 [Example 50, (R)-3-((2-(4-ethoxy-2-fluorophenyl)-3,4-dimethyl-2H-pyrazolo[3,4-d]pyridazin-7-yl)(methyl)amino)-1-phenylpropan-1-ol] | 100 to 500 | 
CCOc1ccc(-n2nc3c(N(C)CC[C@H](O)c4ccccc4)nnc(C)c3c2C)c(F)c1 [Example 49, (S)-3-((2-(4-Ethoxy-2-fluorophenyl)-3,4-dimethyl-2H-pyrazolo[3,4-d]pyridazin-7-yl)(methyl)amino)-1-phenylpropan-1-ol] | < 100 | 
